43 compounds from PubChem BioAssay (NCI) can be followed below.

SMILES strings stand for the structures. Where “and” joins values, the source holds several entries; their conditions need not be identical. Equal values may be shown once.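 Dose response: 5 concentrations. Exposure: 48 h. Format: 96-well plates. Endpoint: linear interpolation; highest concentration if not reached. The concentration for 50% growth inhibition is given as GI50. The concentration for full growth arrest is given as TGI.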

The test system of this experiment is MDA-MB-468 breast. Put plainly: inhibition of tumour cell growth, NCI panel, 48 h.
As to `COc1ccc(Nc2nccc(Nc3ccc4[nH]ncc4c3)n2)cc1`, the GI50 was 1.7 µM and the TGI worked out at 4.55 µM.

For the compound `COc1cc(-c2ccc3ncnc(NCc4ccccc4)c3c2)cnc1OC`, the GI50 was 1.71 µM and the TGI was 4.96 µM.

As for `CCN1CCC(Oc2c(C#N)ncc3[nH]c4ncccc4c23)CC1`, the GI50 is 16 µM and the TGI amounted to 33.3 µM.

As for `O=C1/C(=C/c2ccc(Cl)cc2)COc2ccc(O)cc21`, the GI50 was 2.06 µM and the TGI was determined as 4.55 µM.

Turning to `CCCCNCC(O)c1cc2c(Cl)cc(Cl)cc2c2cc(C(F)(F)F)ccc12` (stereo unspecified), the GI50 was 1.59 µM and the TGI amounted to 3.03 µM.

As for `CCCCCCCCc1cc[n+](CC(=O)c2ccc(Br)cc2)cc1`, the GI50 was 1.23 µM and the TGI was 2.69 µM.

With `C=C1C(=O)O[C@H]2[C@H]1CC/C(COC(=O)CCCCCCC(=O)OC/C1=C/CC[C@@]3(C)O[C@H]3[C@H]3OC(=O)C(=C)[C@@H]3CC1)=C\CC[C@@]1(C)O[C@@H]21`, the GI50 is 2.16 µM and the TGI is 5.44 µM.

With `O=C(CCl)Nc1ccc2c(c1)C(=O)c1ccccc1C2=O`, the GI50 is 1.76 µM and the TGI is 4.08 µM.

As for `N#Cc1c(-c2ccccc2)cc(-c2ccccc2)n(CC(=O)NO)c1=O`, the GI50 was 3.48 µM and the TGI is 14.5 µM.

With `COc1ccc2nc(NNC(=O)c3cnccn3)c3cccn3c2c1`, the GI50 was 0.287 µM and the TGI was found to be 1.96 µM.

Turning to `NC(N)=Nc1ccc(Oc2cccc(NC(N)=Nc3ccc(Cl)c(C(F)(F)F)c3)c2)cn1`, the GI50 was 1.38 µM and the TGI is 3.13 µM.

Turning to `Cc1ccc(C(=O)Nc2ccc(CNCCN3CCNCC3)c(C(F)(F)F)c2)cc1C#Cc1cnc2cccnn12`, the GI50 is 1.65 µM and the TGI worked out at 3.3 µM.

Consider `O=C1Nc2ccccc2/C1=C/C(=N/c1nnc(-c2ccccc2)s1)c1ccccc1`, for which the GI50 is 2.71 µM and the TGI is 8.1 µM.

For the compound `COc1cc(C(=O)/C=C/c2ccc(OCCCCCC[P+](c3ccccc3)(c3ccccc3)c3ccccc3)cc2)cc(OC)c1OC`, the GI50 was 0.242 µM and the TGI worked out at 0.705 µM.

Consider `Clc1ccc(CCC(Cn2ccnc2)Sc2c(Cl)cccc2Cl)cc1` (stereo unspecified), for which the GI50 was 2.13 µM and the TGI turned out to be 7.49 µM.

For the compound `FC(F)(F)c1ccc(-c2cnc(Cl)nc2NC2CCCCCC2)cc1`, the GI50 is 55.8 µM and the TGI was greater than 100 µM.

`O=S1CCN(Cc2ccc(-c3ccc4ncnc(Nc5ccc(OCc6cccc(F)c6)c(Cl)c5)c4c3)o2)CC1`: the GI50 was 0.00568 µM and the TGI amounted to 0.0466 µM.

On to `COc1cc(-c2n[nH]nc2-c2ccc3c(c2)OCCO3)cc(OC)c1OC`, for which the GI50 is 0.0147 µM and the TGI stood at 30.5 µM.

Take `Cc1cc(C)c(-c2cc(O)c(-c3c(C)cc(C)cc3C)cc2O)c(C)c1`: the GI50 is 1.96 µM and the TGI was determined as 8.47 µM.

With `CC(C)c1cc(C(=O)N2Cc3ccc(CN4CCN(C)CC4)cc3C2)c(O)cc1O`, the GI50 was 0.0404 µM and 0.0588 µM; the TGI is 3.72 µM and 0.378 µM.

As to `Cn1ncc2c(Sc3ccc(Cl)cc3)ncnc21`, the GI50 was 20.7 µM and the TGI is greater than 100 µM.

Regarding `c1ccc(-c2c(-c3ccccc3)[n+](Cc3ccc4ccccc4c3)c(-c3cccc4ccccc34)n2Cc2ccc3ccccc3c2)cc1`, the GI50 was 0.0473 µM and the TGI was 0.281 µM.

With `CCCCCCCCc1ccc(OCCOCC[N+](C)(C)CC)cc1` (tested in a mixture with another compound), the GI50 was 0.43 µM and the TGI came to 2.32 µM.

For `O=C(CNc1nc(-c2cccc([N+](=O)[O-])c2)cs1)Nc1cccc([N+](=O)[O-])c1`, the GI50 was 1.95 µM and the TGI stood at 4.92 µM.

On to `Nc1cc2c([nH]c[n+]2CC#CCCl)c(SCC#CCCl)n1`, for which the GI50 was 0.734 µM and the TGI was 2.4 µM.

As for `CC(C)(C)c1ccc(C(=O)Nc2sc3c(c2C#N)CCC(=O)C3)cc1`, the GI50 was 1.33 µM and the TGI stood at 5.28 µM.

As for `COc1cc(/C=N/Nc2ncnc3[nH]ncc23)ccc1O`, the GI50 is 9.9 µM and the TGI is greater than 25 µM.

Turning to `Cc1cc2c([nH]1)CSc1cc(S(=O)(=O)c3ccccc3)c(=O)[nH]c1-2`, the GI50 is 4.53 µM and the TGI was greater than 26.1 µM.

Regarding `COC1=CC(c2ccc[nH]2)=N/C1=C\c1[nH]c(C)c(C(=O)CCCCC(=O)NCc2ccccc2)c1C`, the GI50 is 2.6 µM and the TGI turned out to be 7.85 µM.

Consider `Cn1cc(-c2nc3c(F)cc4[nH]ncc4c3c3c2CCCC3)c(C(F)(F)F)n1`, for which the GI50 was 6.44 µM and the TGI worked out at 33.1 µM.

With `CCN(Cc1ccncc1)c1ccc(CO)c(Cl)c1`, the GI50 was 0.0354 µM and the TGI stood at 0.161 µM.

Turning to `COc1ccc(C2CC(c3cc(Cl)c(C)cc3O)=NN2c2ccc(S(N)(=O)=O)cc2)cc1OC` (stereo unspecified), the GI50 is 2.58 µM and the TGI was 9.51 µM.

For `CC(=O)c1nc2ccccc2n1CCN1CCN(C)CC1`, the GI50 was 1.91 µM and the TGI is greater than 22.3 µM.

For `C=C(C)C(=O)Oc1ccc(N=Nc2ccc(C)cc2)ccc1=O`, the GI50 is 2.8 µM and the TGI worked out at 11.5 µM.

As to `COCC(=O)Oc1cc(-c2ccc(C)cc2C)c(OC(=O)COC)c(-c2ccc(C)cc2C)c1`, the GI50 was 2.79 µM and the TGI came out at 14.6 µM.

Regarding `COc1ccc(/C=C(\C#N)c2ccc(OC)cc2)cc1`, the GI50 is 1.61 µM and the TGI was determined as 35 µM.

Consider `NS(=O)(=O)N(c1cc(C(F)(F)F)cc(C(F)(F)F)c1)C1CCN(Cc2ccc(F)cc2)CC1`, for which the GI50 was 1.86 µM and the TGI amounted to 4.76 µM.

Regarding `NCCOc1ncccc1/C=C1\c2ccccc2-c2ccc(F)cc21`, the GI50 was 1.33 µM and the TGI was determined as 2.84 µM.

On to `O=S1CCN(Cc2ccc(-c3ccc4ncnc(Nc5ccc(OCc6ccccc6)c(Cl)c5)c4c3)o2)CC1`, for which the GI50 was 0.0449 µM and the TGI came out at 0.376 µM.

`O=C(NCCCCNC(=O)OCc1ccc2c(Cl)cc(Cl)c(O)c2n1)OCc1ccc2c(Cl)cc(Cl)c(O)c2n1`: the GI50 is 0.532 µM and the TGI was greater than 100 µM.

Regarding `CCCC(c1nnnn1C1CCCCC1)N1CCN(C(=O)c2ccco2)CC1` (stereo unspecified), the GI50 is greater than 100 µM and the TGI is greater than 100 µM.

As to `Cc1cc(-c2ncc(-c3cccnc3)cc2/C=C/c2ccccc2)cnc1-c1cccnc1`, the GI50 was greater than 20.5 µM and the TGI is greater than 100 µM.

For the compound `COc1ccc(/C=C/c2nnc(/C=C/c3ccc(OC)c(OC)c3)o2)cc1OC`, the GI50 is 2.88 µM and the TGI worked out at 27.5 µM.
